Test results reported in PubChem BioAssay (NCI).
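Interpolation was linear, between the two tested concentrations surrounding the appropriate level; five concentrations were tested over 48 hours in 96-well plates. TGI: concentration producing complete growth inhibition.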

Assays:
Experiment in all cases: growth of human tumour cells (NCI), 48 h
RPMI-8226 leukemia = tested on: RPMI-8226 leukemia
NCI-H460 lung = tested on: NCI-H460 lung
K-562 leukemia = tested on: K-562 leukemia
MOLT-4 leukemia = tested on: MOLT-4 leukemia
OVCAR-3 ovarian = tested on: OVCAR-3 ovarian
TK-10 renal = tested on: TK-10 renal
NCI-H522 lung = tested on: NCI-H522 lung
NCI-H23 lung = tested on: NCI-H23 lung
HOP-62 NSCLC = tested on: HOP-62 NSCLC
SF-268 CNS = tested on: SF-268 CNS

SMILES	TGI (RPMI-8226 leukemia) [µM]	TGI (NCI-H460 lung) [µM]	TGI (K-562 leukemia) [µM]	TGI (MOLT-4 leukemia) [µM]	TGI (OVCAR-3 ovarian) [µM]	TGI (TK-10 renal) [µM]	TGI (NCI-H522 lung) [µM]	TGI (NCI-H23 lung) [µM]	TGI (HOP-62 NSCLC) [µM]	TGI (SF-268 CNS) [µM]
O=C(/C=C/c1ccccc1O)CC(=O)/C=C/c1ccccc1O	15.5	30.7	> 31.6	> 31.6	22.3	> 100	9.83	16.9	19.4	
Cc1cc(CC(O)(C(F)(F)F)C(F)(F)F)cc(CC(O)(C(F)(F)F)C(F)(F)F)n1	5.96	4.2	> 100	13.2	2.76	13.6	6.35	5.31	8.79	10.1
CCCc1c(OC)c(O)c2c(=O)cc(OC)c3c4c(OC)cc(=O)c5c(O)c(OC)c(CCC)c(c1c23)c54	> 100	18.1	> 100	5.69	13.1	> 100	9.53	26.6	18.9	19.6
C/C(=C/CC[C@](C)(OC1OC(CO)C(O)C(O)C1OC1OC(C)C(O)C(O)C1O)[C@H]1CC[C@]2(C)[C@@H]1CC[C@@H]1[C@@]3(C)CC[C@H](O)C(C)(C)[C@@H]3C[C@H](O)[C@]12C)CO (stereo partly specified)	> 100	> 100	> 100	> 100	> 100	> 100	> 100	> 100	> 100	> 100
Clc1ccc2nc3c(c(-c4ccccc4)nn3-c3ccccc3)c(-c3ccccc3)c2c1	> 100	> 100	> 100	> 100	> 100	> 100	> 100	> 100	> 100	> 100
NC(=O)NC1=NCCC(=O)N1CCc1c[nH]c2ccccc12	50.6	39.5	32.9	39.1	47.8	48.6	52.1	43.4	37.6	47
CCNc1nc2ccccc2nc1NCC	> 100	> 100	> 100	> 100	> 100	> 100	> 100	> 100		> 100
CCOC(=O)C(NC(=O)Nc1ccccc1)(Nc1cccc(Cl)c1)C(F)(F)F (stereo unspecified)	> 100	> 100	> 100	> 100	> 100	> 100	> 100	> 100	> 100	> 100
c1ccc2c3c(c(N4CCNCC4)nc2c1)CCCC3		29.4	> 100	> 100	40.1	26.6	31.5	28	48.4	33.8
COc1ccc(/C=N/N=C(N)N)c(C(=O)O)c1OC	> 100	> 100	> 100	> 100	> 100	> 100	> 100	> 100		> 100
